The source of these data is patent publication US10815276B2, “Cell penetrating peptides and methods of making and using thereof” (Entrada Therapeutics, Inc., priority 2014, dated 2020).

The Kd is the constant that tells how readily two partners part at equilibrium.

Read-outs that look alike come from different tables or passages of the source. Starred links: 1 amine or outer side, 2 acyl side, 3 side chain; linkers in the order of their positions; H or OH if unused. Positions of bridges follow the written chain, without caps; N, C: chain ends. Non-standard residues stand in square brackets, D forms with d. Residues, ends and D or L forms follow the SMILES beside them. *: point of attachment. Lys(5-FITC)NH2 = NC(=O)[C@H](CCCCNC(=S)Nc1ccc2c(c1)C(=O)OC21c2ccc(O)cc2Oc2cc(O)ccc21)N*; Trimesoyl = O=C(c1cc(C(=O)[*:2])cc(C(=O)[*:3])c1)[*:1]; Phe(4-Br) = N[C@@H](Cc1ccc(Br)cc1)C(=O)O; 2Nal = N[C@@H](Cc1ccc2ccccc2c1)C(=O)O; d2Nal = N[C@H](Cc1ccc2ccccc2c1)C(=O)O; Pip = O=C(O)[C@@H]1CCCCN1; Dap = NC[C@H](N)C(=O)O; βAla = NCCC(=O)O; Sar = CNCC(=O)O

In experiment [1] the test system is SUV2 (vesicles that mimic the negatively charged endosomal membrane of mammalian cells). Briefly: Fluorescence polarization membrane binding, SUV2. The text has this:
(§1) Also discussed herein are the CPP sequences in Table 16. All uptake/delivery efficiencies are in Table 17 are relative to that of cFΦR4 (290-1F, 100%). SUV1 are small unilamellar vesicles that mimic the neutral outer membrane of mammalian cells [45% phosphatidylcholine (PC), 20% phosphatidylethanolamine (PE), 20% sphingomyelin (SM), and 15% cholesterol (CHO)]. SUV2 are small unilamellar vesicles that mimic the negatively charged endosomal membrane of mammalian cells [50% PC, 20% PE, 10% phosphatidylinositol (PI), and 20% bis(monoacylglycerol)phosphate].
(§2) Measurements were carried out fluorescence polarization using FITC-labeled cyclic peptides against increasing concentrations of vesicles. Experiments were performed at pH 7.4 and 5.5 (pH inside late endosomes).
(In general: Fluorescence polarisation rises when a labelled molecule tumbles more slowly, as on binding a larger partner.)

The subject of experiment [2] is cell type (e.g., HeLa cells). Briefly: Cellular uptake efficiency of cyclic CPPs. The experiment is classed as cell-based. To be noted: relative to cFΦR4 (290-1F, 100%). The method, then:
In particular embodiments, uptake efficiency is determined by comparing (i) the amount of a cyclic cell-penetrating peptide of the invention internalized by a cell type (e.g., HeLa cells) to (ii) the amount of c(FΦRRRRQ) (290-1F) internalized by the same cell type. To measure cellular uptake efficiency, the cell type may be incubated in the presence of a cell-penetrating peptide of the invention for a specified period of time (e.g., 30 minutes, 1 hour, 2 hours, etc.) after which the amount of the cell-penetrating peptide internalized by the cell is quantified. Separately, the same concentration of c(FΦRRRRQ) (290-1F) is incubated in the presence of the cell type over the same period of time, and the amount of the second peptide internalized by the cell is quantified. Quantification can be achieved by fluorescently labeling the cell-penetrating peptide (e.g., with a FTIC dye) and measuring the fluorescence intensity using techniques well-known in the art.
as §1

Experiment [3] relates to SUV1 (vesicles that mimic the neutral outer membrane of mammalian cells). Briefly: Fluorescence polarization membrane binding, SUV1. To be noted: pH 7.4; read-out: Membrane Binding KD (mM) SUV1 pH 7.4.
Description: as §1, §2

The next experiment addresses T1, Pin1 (Homo sapiens, UniProt Q13526, S16A/Y23A).
T1 construct: The full-length human S16A/Y23A mutant Pin1 was expressed and purified from E. coli; made in house
Briefly: Pin1 binding by FA (FITC-labeled peptides). To be noted: for Kd: FITC-labeled peptide, FA, read-out: KD.

The mark [4] stands for this setting: pH 5.5, read-out: Membrane Binding KD (mM) SUV2 pH 5.5.
[5] abbreviates: pH 7.4, read-out: Membrane Binding KD (mM) SUV2 pH 7.4.

Description for Pin1: FA experiments were carried out by incubating 100 nM FITC-labeled peptide with varying concentrations of protein in 20 mM HEPES (pH 7.4), 150 mM NaCl, 2 mM magnesium acetate, and 0.1% bovine serum albumin (BSA) for 2 h at room temperature. The FA values were measured on a Molecular Devices Spectramax M5 plate reader, with excitation and emission wavelengths at 485 and 525 nm, respectively. Equilibrium dissociation constants (KD) were determined by plotting the FA values as a function of protein concentration and fitting the curve to the following equation:

On to `N=C(N)NCCC[C@@H]1NC(=O)[C@H](CCC(=O)N[C@@H](CCCCNC(=S)Nc2ccc3c(c2)C(=O)OC32c3ccc(O)cc3Oc3cc(O)ccc32)C(N)=O)NC(=O)[C@H](CCCNC(=N)N)NC(=O)[C@H](CCCNC(=N)N)NC(=O)[C@H](Cc2ccccc2)NC(=O)[C@H](Cc2ccc3ccccc3c2)NC(=O)[C@H](CCCNC(=N)N)NC1=O` [Peptide 290-2F, c(RRΦFRRQ)] (cyclo(RR[2Nal]FRRE(Lys(5-FITC)NH2))), for which the figures for the equilibrium dissociation constant (Kd) in experiment [1] (setting [4]), in experiment [1] (setting [5]) and in experiment [3] were 0.025 mM, 0.69 mM and 1.95 mM, respectively. Also, the “Uptake Efficiency (%)” value in experiment [2] is 47%.
`N=C(N)NCCC[C@@H]1NC(=O)[C@@H](CCCNC(=N)N)NC(=O)[C@H](CCCNC(=N)N)NC(=O)[C@@H](CCCNC(=N)N)NC(=O)[C@@H](Cc2ccc3ccccc3c2)NC(=O)[C@H](Cc2ccccc2)NC(=O)[C@H](CCC(=O)N[C@@H](CCCCNC(=S)Nc2ccc3c(c2)C(=O)OC32c3ccc(O)cc3Oc3cc(O)ccc32)C(N)=O)NC1=O` [Peptide 290-13F, c(FϕrRrRQ)] (cyclo(F[d2Nal][dR]R[dR]RE(Lys(5-FITC)NH2))): the equilibrium dissociation constant (Kd) in experiment [1] (setting [4]) worked out at 0.04 mM; in experiment [1] (setting [5]), 0.28 mM; in experiment [3] it was 0.68 mM. In addition, the “Uptake Efficiency (%)” value in experiment [2] is 200%.
In the same order, the values of `N=C(N)NCCC[C@@H]1NC(=O)[C@H](CCCNC(=N)N)NC(=O)[C@H](CCCNC(=N)N)NC(=O)[C@H](Cc2ccc3ccccc3c2)NC(=O)[C@H](Cc2ccccc2)NC(=O)[C@H](CCC(=O)N[C@@H](CCCCNC(=S)Nc2ccc3c(c2)C(=O)OC32c3ccc(O)cc3Oc3cc(O)ccc32)C(N)=O)NC1=O` [Peptide 290-5F, c(FΦRRRQ)] (cyclo(F[2Nal]RRRE(Lys(5-FITC)NH2))) are 0.066 mM, 2.4 mM, 10.1 mM and 97%.
Taken in the same sequence, the figures for `N=C(N)NCCC[C@@H]1NC(=O)[C@H](CCCNC(=N)N)NC(=O)[C@H](CCCNC(=N)N)NC(=O)[C@H](Cc2ccccc2)NC(=O)[C@H](CCC(=O)N[C@@H](CCCCNC(=S)Nc2ccc3c(c2)C(=O)OC32c3ccc(O)cc3Oc3cc(O)ccc32)C(N)=O)NC(=O)[C@H](Cc2ccc3ccccc3c2)NC(=O)[C@H](CCCNC(=N)N)NC1=O` [Peptide 290-4F, c(FRRRRΦQ)] (cyclo(FRRRR[2Nal]E(Lys(5-FITC)NH2))) were 0.11 mM, 0.54 mM, 7.24 mM and 59%.
In the same order, the values of `N=C(N)NCCC[C@@H]1NC(=O)[C@H](CCCNC(=N)N)NC(=O)[C@H](CCCNC(=N)N)NC(=O)[C@H](CCCNC(=N)N)NC(=O)[C@H](Cc2ccc3ccccc3c2)NC(=O)[C@H](Cc2ccccc2)NC(=O)[C@H](CCC(=O)N[C@@H](CCCCNC(=S)Nc2ccc3c(c2)C(=O)OC32c3ccc(O)cc3Oc3cc(O)ccc32)C(N)=O)NC(=O)[C@H](CCCNC(=N)N)NC1=O` [Peptide 290-6F] (cyclo([2Nal]RRRRRE(Lys(5-FITC)NH2)F)) are 0.019 mM, 0.12 mM, 2.2 mM and 184%.
With `N=C(N)NCCC[C@@H]1NC(=O)[C@H](CCCNC(=N)N)NC(=O)[C@H](CCCNC(=N)N)NC(=O)[C@H](Cc2ccc3ccccc3c2)NC(=O)[C@H](Cc2ccccc2)NC(=O)[C@H](Cc2ccccc2)NC(=O)[C@H](CCC(=O)N[C@@H](CCCCNC(=S)Nc2ccc3c(c2)C(=O)OC32c3ccc(O)cc3Oc3cc(O)ccc32)C(N)=O)NC(=O)[C@H](CCCNC(=N)N)NC1=O` [Peptide 290-7F] (cyclo(FF[2Nal]RRRRE(Lys(5-FITC)NH2))), the Kd in experiment [1] (setting [4]) was 0.007 mM; in experiment [1] (setting [5]), 0.11 mM; in experiment [3], 1.65 mM. In addition, the “Uptake Efficiency (%)” value in experiment [2] worked out at 134%.
Regarding `C[C@@H]1NC(=O)[C@H](CCCNC(=N)N)NC(=O)[C@H](Cc2ccc3ccccc3c2)NC(=O)[C@@H]2CCCCN2C(=O)[C@@H]([C@H](C)O)NC(=O)[C@H](Cc2c[nH]cn2)NC(=O)[C@@H](Cc2ccccc2)NC(=O)c2cc3cc(c2)C(=O)NC[C@H](NC(=O)[C@@H](Cc2ccccc2)NC1=O)C(=O)N[C@@H](Cc1ccccc1)C(=O)N[C@@H](Cc1ccc2ccccc2c1)C(=O)N[C@@H](CCCNC(=N)N)C(=O)N[C@@H](CCCNC(=N)N)C(=O)N[C@@H](CCCNC(=N)N)C(=O)N[C@@H](CCCNC(=N)N)C(=O)N[C@H](C(=O)N[C@@H](CCCCN)C(N)=O)CNC3=O` [Peptide 31, bicyclo[Tm-(D-Phe-His-D-Thr-Pip-Nal-Arg-Ala-D-Phe)-Dap-(Phe-Nal-Arg-Arg-Arg-Arg-Dap)]-Lys] ([dF]H[dT][Pip][2Nal]RA[dF][Dap]F[2Nal]RRRR[Dap]K-NH2; linker N-9-16 via Trimesoyl; C-terminus assumed), the Kd on Pin1 was 1680 ± 170 nM.
Take `C[C@@H]1NC(=O)[C@H](CCCNC(=N)N)NC(=O)[C@H](Cc2ccc3ccccc3c2)NC(=O)[C@@H]2CCCCN2C(=O)[C@@H](CC(=O)O)NC(=O)CN(C)C(=O)[C@@H]2CCCN2C(=O)c2cc3cc(c2)C(=O)NC[C@@H](C(=O)N[C@@H](CCCCN)C(N)=O)NC(=O)[C@H](CCCNC(=N)N)NC(=O)[C@H](CCCNC(=N)N)NC(=O)[C@H](CCCNC(=N)N)NC(=O)[C@H](CCCNC(=N)N)NC(=O)[C@H](Cc2ccc4ccccc4c2)NC(=O)[C@H](Cc2ccccc2)NC(=O)[C@H](CNC3=O)NC(=O)CCNC1=O` [Peptide 13, bicyclo[Tm-(Pro-Sar-D-Asp-Pip-Nal-Arg-Ala-β-Ala)-Dap-(Phe-Nal-Arg-Arg-Arg-Arg-Dap)]-Lys] (P[Sar][dD][Pip][2Nal]RA[βAla][Dap]F[2Nal]RRRR[Dap]K-NH2; linker N-9-16 via Trimesoyl; C-terminus assumed): at Pin1, the Kd stood at 2080 ± 310 nM.
Consider `C[C@@H]1NC(=O)[C@H](CCCNC(=N)N)NC(=O)[C@H](Cc2ccc3ccccc3c2)NC(=O)[C@@H]2CCCCN2C(=O)[C@@H]([C@H](C)O)NC(=O)[C@H](Cc2ccc(Br)cc2)NC(=O)[C@@H](Cc2ccccc2)NC(=O)c2cc3cc(c2)C(=O)NC[C@H](NC(=O)[C@@H](Cc2ccccc2)NC1=O)C(=O)N[C@@H](Cc1ccccc1)C(=O)N[C@@H](Cc1ccc2ccccc2c1)C(=O)N[C@@H](CCCNC(=N)N)C(=O)N[C@@H](CCCNC(=N)N)C(=O)N[C@@H](CCCNC(=N)N)C(=O)N[C@@H](CCCNC(=N)N)C(=O)N[C@H](C(=O)N[C@@H](CCCCN)C(N)=O)CNC3=O` [Peptide 32, bicyclo[Tm-(D-Phe-4-BrPhe-D-Thr-Pip-Nal-Arg-Ala-D-Phe)-Dap-(Phe-Nal-Arg-Arg-Arg-Arg-Dap)]-Lys] ([dF][Phe(4-Br)][dT][Pip][2Nal]RA[dF][Dap]F[2Nal]RRRR[Dap]K-NH2; linker N-9-16 via Trimesoyl; C-terminus assumed), for which the Kd on Pin1 turned out to be 1780 ± 420 nM.
Same read-out and setting: the value for “bicyclo[Tm-(D-4-Phe-Fpa-D-homoGlu-Pip-Nal-Arg-Ala-D-Phe)-Dap-(Phe-Nal-Arg-Arg-Arg-Arg-Dap)]-Lys [Peptide 41]” was 870 ± 80 nM.
On to `CN1CC(=O)N[C@H](CC(=O)O)C(=O)N2CCCC[C@H]2C(=O)N[C@@H](Cc2ccc3ccccc3c2)C(=O)N[C@@H](CCCNC(=N)N)C(=O)N[C@@H](CCCNC(=N)N)C(=O)N[C@H](Cc2ccccc2)C(=O)N[C@H]2CNC(=O)c3cc(cc(c3)C(=O)N3CCC[C@H]3C1=O)C(=O)NC[C@@H](C(=O)N[C@@H](CCCCN)C(N)=O)NC(=O)[C@H](CCCNC(=N)N)NC(=O)[C@H](CCCNC(=N)N)NC(=O)[C@H](CCCNC(=N)N)NC(=O)[C@H](CCCNC(=N)N)NC(=O)[C@H](Cc1ccc3ccccc3c1)NC(=O)[C@H](Cc1ccccc1)NC2=O` [Peptide 22, bicyclo[Tm-(Pro-Sar-D-Asp-Pip-Nal-Arg-Arg-D-Phe)-Dap-(Phe-Nal-Arg-Arg-Arg-Arg-Dap)]-Lys] (P[Sar][dD][Pip][2Nal]RR[dF][Dap]F[2Nal]RRRR[Dap]K-NH2; linker N-9-16 via Trimesoyl; C-terminus assumed), for which the Kd on Pin1 came to 480 nM. Moreover, the “Improvement of Pin1 binding by D-Phe for D-Ala vs parent peptide” value at Pin1 (peptide 22 vs 3, peptide 27 vs 4) is on record as around 2 fold.
`C[C@@H]1NC(=O)[C@H](CCCNC(=N)N)NC(=O)[C@H](Cc2ccc3ccccc3c2)NC(=O)[C@@H]2CCCCN2C(=O)[C@@H](CC(=O)O)NC(=O)CN(C)C(=O)[C@@H]2CCCN2C(=O)c2cc3cc(c2)C(=O)NC[C@H](NC(=O)[C@@H](C)NC(=O)[C@@H](C)NC1=O)C(=O)N[C@@H](Cc1ccccc1)C(=O)N[C@@H](Cc1ccc2ccccc2c1)C(=O)N[C@@H](CCCNC(=N)N)C(=O)N[C@@H](CCCNC(=N)N)C(=O)N[C@@H](CCCNC(=N)N)C(=O)N[C@@H](CCCNC(=N)N)C(=O)N[C@H](C(=O)N[C@@H](CCCCN)C(N)=O)CNC3=O` [Peptide 16, bicyclo[Tm-(Pro-Sar-D-Asp-Pip-Nal-Arg-Ala-D-Ala-D-Ala)-Dap-(Phe-Nal-Arg-Arg-Arg-Arg-Dap)]-Lys] (P[Sar][dD][Pip][2Nal]RA[dA][dA][Dap]F[2Nal]RRRR[Dap]K-NH2; linker N-10-17 via Trimesoyl; C-terminus assumed): the Kd at Pin1 is 2490 ± 570 nM.
